Data as given in patent publication US20020072474A1, “Herbicidal compositions” (priority 2000, published 2002).

Columns and labels:
AVEFA (Avena fatua) = assay: Activity against grass weeds, post-emergence spray in pots in controlled-environment cabinet, visual scoring; type: in vivo; details: mesosulfuron-methyl 60 g a.i./ha (Silwet L77 50 g a.i./ha, sodium lactate 150 g a.i./ha where present); sprayed four weeks after sowing, water 300 l/ha; visual scoring 14 days after application, 0% = no damage to 100% = all plants dead
Method: (§1) The individual components herbicide, surfactant and humectant as stated in Table 1 with regard to the application rates were added with stirring to a water application rate of 300 I/ha so that a homogeneous spray mixture was formed. The herbicide employed was mesosulfuron-methyl as 20 percent water-dispersible powder. The surfactant used was Silwet®L77 (Wacker) and the humectant used was sodium lactate as 50 percent aqueous solution (Merck KGaA, Darmstadt). Seeds of the harmful plants AVEFA and LOLMU were sown in a sandy loam soil in round pots type 13 in a controlled-environment cabinet and watered slightly. During the entire experiment period, the substrate only received minimal irrigation. A daytime temperature of 18° C. and a night time temperature of 16° C. were adhered to, a uniform day length of 16 hours being achieved by additional illumination with sodium vapor lamps (approx. 7000 lux). The relative atmospheric humidity was 50%. Four weeks after sowing, the plants were treated on a laboratory spray conveyor with the spray mixture which had been prepared in accordance with Example 1. The water application rate for the spray application of the preparations was 300 I/ha. After the treatment, the plants were returned to the controlled-environment cabinet. […]

[1] = tested on: LOLMU (Lolium multiflorum); assay: as above; type: in vivo; details: mesosulfuron-methyl 60 g a.i./ha (Silwet L77 50 g a.i./ha, sodium lactate 150 g a.i./ha where present); sprayed four weeks after sowing, water 300 l/ha; visual scoring 14 days after application, 0% = no damage to 100% = all plants dead
Method: as §1

COC(=O)c1ccc(CNS(C)(=O)=O)cc1S(=O)(=O)NC(=O)Nc1nc(OC)cc(OC)n1 [Mesosulfuron, mesosulfuron-methyl]
Damage in % AVEFA (AVEFA (Avena fatua)): 22% | Damage in % LOLMU [1]: 18%
